# Assay results as given in patent US20260297508A1, “MODULATORS OF PROTEIN SECRETION” (SANOFI, priority 2023, published 2026).
# Experiments:
# [1] = system: D1 receptors; conditions: cited from earlier work
# [2] = system: D3/D2 receptor; conditions: cited from earlier work
# [3] = system: biotin-induced antibody release, U2OS clone #7 cells; assay: High-throughput RUSH screen: biotin-induced cytoplasmic GFP signal decay (antibody release), U2OS clone #7; format: cell-based, human
# Description: FIGS. 4A-4C show the high-throughput screening of chemical compound libraries for the identification of modulators of protein secretion. […] U2OS clone #7 is plated in 384-well plates and incubated for 24 h before treatment with each compound of the Prestwick, ICCB Known Bioactives, or Autophagy Compound Library at 2 concentrations, low and high (with a 10-fold difference). […] The results of the Prestwick library screening at the low drug concentration are plotted. Brefeldin A was used as a positive control of the inhibition of secretion. The compounds causing a cytoplasmic GFP intensity below that observed for biotin-only treated cells are potential enhancers of protein secretion.
# U2OS cells were transfected with the streptavidin-KDEL plasmid using Lipofectamine 2000 (Thermo Fisher Scientific) and selected in medium supplemented with G418 (400 μg/mL, Gibco-Invitrogen) for 2 weeks. Limiting dilution in 96-well plates was used for single cell isolation from the selected pool. Clones were amplified and selected based on streptavidin immunofluorescence. Clone #BD6 showing the highest streptavidin expression was further expanded in medium supplemented with G418 (200 μg/mL) and transfected with the anti-PD-L1 IgG RUSH plasmid using Lipofectamine 2000 and selected in medium supplemented with G418 (200 μg/mL) and hygromycin (100 μg/mL, Santa Cruz Biotechnology) for 2 weeks. Limiting dilution in 96-well plates was used for single cell isolation from clone #BD6-derived selected pool. Clones were amplified and selected based on GFP fluorescence and clone #7 was selected for further characterization and screening campaigns.
# U2OS clone #7 cells were seeded in black 384-well imaging plates (Greiner bio one), 2,000 cells/well, and incubated for 24 h at 37° C. in a humidified incubator with 5% CO2. Cells were treated on the next day with the compounds from either the Prestwick library at […], the ICCB Known Bioactives library at 1/100^e or 1/1000^e, or the autophagy compound library at 10 μM or 1 μM for 4 h. […] Cells were then fixed as described above and processed for subsequent automated image acquisition using a robot-assisted IXM XL BioImager (Molecular Devices, Sunnyvale, CA, USA) equipped with a Sola light source (Lumencor, Beaverton, OR, USA), adapted excitation and emission filters (Semrock) a 16-bit monochrome sCMOS PCO.edge 5.5 camera (PCO, Kelheim, Germany). A 20× PlanAPO objective (Nikon, Tokyo, Japan) was used to acquire a minimum of 4 view fields in each well. The acquired images were processed using the open-access R software (https://www.r-project.org) with the help of freely available packages EBImage (available on the Bioconductor repository https://www.bioconductor.org), and RBioFormats (https://github.com/aoles/RBioFormats), and the custom packages MetaxpR (https://github.com/asauvat/MetaxpR) and MorphR (https://github.com/kroemerlab/MorphR). Nuclei were first detected using Hoechst 33342 signal and used as a marker to detect cytoplasmic areas based on GFP signal, allowing for the evaluation of cytoplasmic GFP intensity. Data were thereafter extracted and statistically evaluated using R (https://www.r-project.org). Data were normalized using negative and positive controls, reduced and transformed into a Z-score. The experiments were repeated manually at low scale with selected drugs to confirm their effects on secretion, in this second set of assays, U2OS clone #7 cells incubated with secretion inhibitors were fixed and stained with Hoechst as described above for imaging and viability determination based on cell counts.
# We next sought to use clone #7 in screening campaigns for the identification of drugs capable of enhancing or inhibiting antibody secretion. […] Cell counting was facilitated by nuclear counterstaining with Hoechst 33324 in order to assess viability and distinguish drug effects on the secretion kinetics from direct cytotoxicity and select relevant drugs for further characterization. […]
# [4] = system: human PD-L1 (CHO-PDL1 cells); assay: Flow cytometry binding to PD-L1-expressing CHO cells; conditions: FACS
# From the text: (§1) FIGS. 3A-F show the characterization of the binding capacity of the anti-PD-L1 RUSH antibody released through the biotin-activated RUSH system (FIGS. 3A, 3C, and FIG. 3E) Schematic representation of the antibody binding to PD-L1^pos cells and detection by flow cytometry. […] Dark grey, binding to PD-L1^pos CHO cells (CHO-PDL1); light grey, binding to PD-L1^neg parental CHO cells (CHO-K1). Antibody binding is detected by means of an indirect immunofluorescence assay with a secondary anti-Fc APC conjugated or by direct measurement of GFP fluorescence.
# (§2) Human osteosarcoma U2OS cells obtained from the Kroemer lab were maintained at 37° C. in a humidified incubator with 5% CO2 in Dulbecco's Modified Eagle Medium (DMEM) supplemented with 10% Fetal Bovine Serum (FBS), 1% penicillin-streptomycin and 1% HEPES (Gibco, Carlsbad, CA). CHO-K1 (CCL-61) cells were obtained from the ATCC and cultured at 37° C. in a humidified incubator with 5% CO2 in Nutrient Mixture F-12 Ham's (Sigma, Saint-Louis, MO) supplemented with 10% FBS and 2 mM L-Glutamine (Gibco). PD-L1-expressing CHO cells were cultured in similar conditions in medium supplemented with 7.5 μg/mL puromycin (Gibco). The Prestwick, the BML-2840 ICCB Known Bioactives and the Autophagy Compounds libraries were purchased from Prestwick Chemicals (Illkirch, France), Enzo Life Sciences (Farmingdale, NY), and TargetMol (Boston, MA), respectively. […]
# [5] = system: CHO-K1 cells; assay: Flow cytometry binding to PD-L1neg parental CHO cells; conditions: FACS
# From the text: as §1, §2
# [6] = system: RUSH antibody release and furin processing, U2OS clone #7 cells; assay: Western blot of cell lysates and concentrated supernatants of clone #7; format: cell-based, human; conditions: 40 μM biotin, 4 h; FIG. 2C
# From the text: (§3) FIGS. 2A-2F show characterization of the anti-PD-L1 antibody RUSH system. […] Molecular mass standards (in kDa) are indicated on the left in panel FIG. 2D. The structures of the proteins detected by immunoblot are indicated based on the scheme shown in FIG. 1B and include antibody heavy and light chains, GFP, SBP, and a linker with a furin cleavage site. The truncated shape at the antibody C-terminus represents linker residues left after cleavage by furin. Results are representative of at least 3 independent experiments.
# U2OS clone #7 cells were seeded in T-175 flasks and kept for 24 h at 37° C. in a humidified incubator with 5% CO2. […] At the end of the incubation time, cells were harvested and lysed in RIPA buffer (Thermo Fisher Scientific) supplemented with protease and phosphatase inhibitors (Roche, Basel, Switzerland). Additionally, cell culture supernatants were collected and concentrated ~100-fold in Amicon 50 kDa filter unit (Sigma) according to the manufacturer's instructions. Cell lysate and concentrated supernatant protein concentrations were determined using the BCA™ protein assay kit (Thermo Fisher Scientific). […] The membranes were then washed 3 times for 5 min with 0.01% Tween-20/TBS and peroxidase activity was evaluated with Amersham ECL Primer Western Blotting Detection Reagent (GE Healthcare, Little Chalfont, UK) on ImageQuant™ LAS4000 (GE Healthcare).
# [7] = system: GFP-tagged RUSH antibody trafficking, U2OS clone #7 cells; assay: Time lapse / fluorescence microscopy of GFP-tagged antibody trafficking in clone #7; format: cell-based, human
# From the text: as §3
# U2OS clone #7 cells were seeded in black 96-well imaging plates (Greiner bio one, Kremsmünster, Austria). After 24 h, the medium was removed, cells were rinsed with 37° C. pre-heated PBS and fixed in PBS supplemented with 4% paraformaldehyde (PFA, Sigma) and 1 μg/mL Hoechst (Life Technologies, Carlsbad, CA, USA) for 20 min under agitation at room temperature (RT). Cells were rinsed with PBS before addition of a 5% FBS/0.3% Triton X-100/PBS permeabilizing solution for 30 min under agitation at RT. Cells were rinsed with PBS and incubated overnight under agitation at 4° C. with the primary antibody in 1% BSA/PBS. Cells were washed with PBS and incubated for 45 min under agitation at RT with the secondary antibody in 1% BSA/PBS. Finally, cells were washed, and processed for image acquisition using an IXM XL BioImager (Molecular Devices, Sunnyvale, CA).
compound,measurement,setting,value
"CCCN(CCC)CCc1cccc2c1CC(=O)N2 [ropinirole, 4-[2-(dipropylamino)ethyl]-1,3-dihydroindol-2-one]",affinity for D1 receptors,[1],no affinity
same,D3/D2 receptor agonism,[2],potent D3/D2 receptor agonist
same,"secretion activator at both low and high concentration (consistently decreased fluorescent signal, among 20 best activators)","[3]; Prestwick library, low and high concentration, 4 h compound, then 40 μM biotin 1 h",fulfilled these criteria
same,decrease of intracytoplasmic GFP fluorescence signal (biotin-stimulated RUSH system),"[3]; screening campaigns, summary",consistently decreased intracytoplasmic GFP fluorescence
anti-PD-L1: reference anti-human PD-L1 antibody produced from published Atezolizumab heavy and light chains sequences,binding to CHO-PDL1 cells,[4],binding to PD-L1^pos (CHO-PDL1)
same,binding to CHO-K1 cells,[5],not PD-L1^neg CHO (CHO-K1) cells
O=C(O)CCCC[C@@H]1SC[C@@H]2NC(=O)N[C@@H]21 [biotin],Western blot signal intensity in cell lysate,[6],intensity of the signal was lower
same,time of relocation of the GFP signal to the Golgi apparatus,[7]; 40 μM biotin,40 to 120 min
same,time to complete cytoplasmic GFP signal decay,[7]; 40 μM biotin,≤ 4 h
same,GFP/streptavidin co-localization,"[7]; 4 h after addition of biotin, FIG. 2B",lost 4 h after addition of biotin
same,"Pearson's correlation coefficient (PCC), hook / GFP-tagged antibody colocalization","[7]; in the presence of biotin, 4 h, FIG. 2B",0.29
